49 compounds from patent US20230084927A1, “GLUCOSE UPTAKE INHIBITORS AND USES THEREOF” (METABOMED LTD., priority 2019, published 2023) can be followed below.

The term EC50 denotes the concentration that produces a half-maximal response.

In one assay the test system is SDH-WT cells. Description: Cellular / differential toxicity assay (CellTiter-Glo, 3 days). As to conditions: Mus musculus, 72 h, toxicity, SDH-WT cells, 3 days, CellTiter-Glo; read-out: EC50 (uM) SDH-WT. It is filed as cell-based, murine. An outline of the steps: (§1)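 Isogenic SDHB-deficient (HRAS-transformed SDH-KO) and SDH-WT cells grown in DMEM-F12 with 1 mM glutamine and 3% FBS, plated with compound (10-point dilution from 10 uM to 0.0065 uM or lower) for 3 days at 37 °C, 5% CO2. Viability by CellTiter-Glo luminescence; EC50 calculated.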
A general note: In ATP-based viability assays light output follows the ATP content of the culture.

The subject of assay [1] is SDH-KO-HRAS cells (SDHB-deficient). The assay is described as above. It is filed as cell-based, murine. Particulars: Mus musculus, 72 h, toxicity, SDH-KO cells, 3 days, CellTiter-Glo; read-out: EC50 (uM) SDH-KO-HTAS-C17. An outline of the steps:
as §1

`COc1ccc(CCNc2ncnc3c2sc2nc4c(cc23)CN(C)CC4)cc1F` [Compound 106, N-(3-Fluoro-4-methoxyphenethyl)-9-methyl-7,8,9,10-tetrahydropyrimido[4′,5′:4,5]-thieno[2,3-b][1,6]naphthyridin-4-amine]: the concentration for a half-maximal effect (EC50) (in the assay on SDH-WT cells; in assay [1]) was 3 to 10 µM each time.
In the case of `CC1(C)Cc2nc3sc4c(N5CCC(Cc6ccccc6)CC5)ncnc4c3cc2CO1` [Compound 279], the concentration giving a half-maximal response (EC50) (in the assay on SDH-WT cells; in assay [1]) was > 10 µM throughout.
Consider `CC(=O)c1nc2cc(CCNc3ncnc4c3sc3nc5c(cc34)COC(C)(C)C5)ccc2[nH]1` [Compound 178], for which the results for the EC50 (in the assay on SDH-WT cells; in assay [1]) were 3 to 10 µM and < 1 µM, respectively.
On the same counts, the results for `CC1(C)Cc2nc3sc4c(N5CCOCC5)ncnc4c3cc2CO1` [Compound 137] are > 10 µM and > 10 µM.
As for `COc1cc(CCNc2ncnc3c2sc2nc4c(cc23)COC(C)(C)C4)ccc1F` [Compound 121], the 50% effective concentration (EC50) in the assay with SDH-WT cells was > 10 µM; in assay [1], 3 to 10 µM.
`CCN(CC)CCNc1ncnc2c1sc1nc3c(cc12)COC(C)(C)C3` [Compound 218]: the half-maximal effective concentration (EC50) (in the assay on SDH-WT cells; in assay [1]) was > 10 µM each time.
Consider `Cc1nc(NC2CCCCC2)c2sc3nc4c(cc3c2n1)COC(C)(C)C4` [Compound 264], for which the half-maximal effective concentration (EC50) is > 10 µM with SDH-WT cells and 3 to 10 µM in assay [1].
On the same counts, the results for `CCCCCCCCNc1ncnc2c1sc1nc3c(cc12)COC(C)(C)C3` [Compound 246] are > 10 µM and > 10 µM.
Regarding `CC1(C)Cc2nc3sc4c(NCCC5CCCCO5)ncnc4c3cc2CO1` (centres unmarked) [Compound 112], the half-maximal effective concentration (EC50) with SDH-WT cells was > 10 µM; in assay [1] it was 3 to 10 µM.
The like results for `COc1cccc(CCNc2ncnc3c2sc2nc4c(cc23)COC(C)(C)C4)c1OC` [Compound 103] were, in that order, > 10 µM and > 10 µM.
The like results for `COCCOCCOCCOCCOCCOCc1c2c(nc3sc4c(NCCc5ccc6[nH]cnc6c5)ncnc4c13)CC(C)(C)OC2` [Compound 214] were, in that order, > 10 µM and 1 to 3 µM.
On to `CC1(C)Cc2nc3sc4c(NCCCN5CCOCC5)ncnc4c3cc2CO1` [Compound 290], for which the EC50 (in the assay with SDH-WT cells; in assay [1]) was > 10 µM throughout.
Take `Cc1nc(N2CCCCC2)c2sc3nc4c(cc3c2n1)COC(C)(C)C4` [Compound 233]: the concentration giving a half-maximal response (EC50) (in the assay on SDH-WT cells; in assay [1]) was > 10 µM throughout.
Turning to `CC(C)c1nc2cc(CCNc3ncnc4c3sc3nc5c(cc34)COC(C)(C)C5)ccc2[nH]1` [Compound 188], the 50% effective concentration (EC50) in the assay on SDH-WT cells was in the range of 1 to 3 µM; in assay [1], 3 to 10 µM.
In the case of `CC1(C)Cc2nc3sc4c(NCCc5ccc(N)cc5)ncnc4c3cc2CO1` [Compound 151], the EC50 in the assay with SDH-WT cells was 3 to 10 µM; in assay [1] it was < 1 µM.
On the same counts, the results for `COCCNc1ncnc2c1sc1nc3c(cc12)COC(C)(C)C3` [Compound 283] are > 10 µM and > 10 µM.
The like results for `Cc1nc(NCCCO)c2sc3nc4c(cc3c2n1)COC(C)(C)C4` [Compound 222] were, in that order, > 10 µM and > 10 µM.
Turning to `CCCOc1ccc(CCNc2ncnc3c2sc2nc4c(cc23)COC(C)(C)C4)cc1OC` [Compound 115], the EC50 in the assay on SDH-WT cells lay in the range of 1 to 3 µM; in assay [1], 3 to 10 µM.
Turning to `CN(Cc1ccccc1)c1ncnc2c1sc1nc3c(cc12)COC(C)(C)C3` [Compound 292], the EC50 (with SDH-WT cells; in assay [1]) was > 10 µM each time.
With `CC(=O)OCc1nc2cc(CCNc3ncnc4c3sc3nc5c(cc34)COC(C)(C)C5)ccc2[nH]1` [Compound 176], the EC50 was 3 to 10 µM with SDH-WT cells and < 1 µM in assay [1].
As for `Cc1nc(NCCN(C)C)c2sc3nc4c(cc3c2n1)COC(C)(C)C4` [Compound 225], the EC50 (with SDH-WT cells; in assay [1]) was > 10 µM each time.
`COCCOCCOCCNCc1c2c(nc3sc4c(NCCc5ccc6[nH]cnc6c5)ncnc4c13)CC(C)(C)OC2` [Compound 320, N-(2-(1H-Benzo[d]imidazol-5-yl)ethyl)-11-(5,8,11-trioxa-2-azadodecyl)-8,8-dimethyl-7,10-dihydro-8H-pyrano[3″,4″:5′,6′]pyrido[3′,2′:4,5]thieno[3,2-d]pyrimidin-4-amine]: the EC50 (in the assay on SDH-WT cells; in assay [1]) was 3 to 10 µM each time.
Take `CC1(C)Cc2nc3sc4c(NCCc5cccnc5)ncnc4c3cc2CO1` [Compound 124]: the EC50 (in the assay on SDH-WT cells; in assay [1]) was > 10 µM throughout.
For `CC1(C)Cc2nc3sc4c(NCCc5ccc6[nH]cnc6c5)ncnc4c3c(C(=O)O)c2CO1` [Compound 171, 4-((2-(1H-Benzo[d]imidazol-6-yl)ethyl)amino)-8,8-dimethyl-8,10-dihydro-7H-pyrano[3″,4″:5′,6′]pyrido[3′,2′:4,5]thieno[3,2-d]pyrimidine-11-carboxylic Acid], the 50% effective concentration (EC50) (in the assay with SDH-WT cells; in assay [1]) was 3 to 10 µM in each case.
Consider `CCN(CC)CCCNc1ncnc2c1sc1nc3c(cc12)COC(C)(C)C3` [Compound 287], for which the EC50 (with SDH-WT cells; in assay [1]) was > 10 µM in each case.
Consider `CC1(C)Cc2nc3sc4c(NCCc5ccc6[nH]nnc6c5)ncnc4c3cc2CO1` [Compound 201], for which the half-maximal effective concentration (EC50) with SDH-WT cells was 1 to 3 µM; in assay [1], < 1 µM.
As for `COCCOCCOCCOCCOC(=O)c1c2c(nc3sc4c(NCCc5ccc6[nH]cnc6c5)ncnc4c13)CC(C)(C)OC2` [Compound 164], the values for the concentration for a half-maximal effect (EC50) (in the assay on SDH-WT cells; in assay [1]) were 3 to 10 µM and < 1 µM, respectively.
On the same counts, the results for `COCCCNc1ncnc2c1sc1nc3c(cc12)COC(C)(C)C3` [Compound 281] are > 10 µM and 3 to 10 µM.
For `COc1ccc(CCN(C(C)=O)c2ncnc3c2sc2nc4c(cc23)COC(C)(C)C4)cc1F` [Compound 160], the EC50 (in the assay with SDH-WT cells; in assay [1]) was > 10 µM throughout.
As to `CC1(C)Cc2nc3sc4c(NCC5CCCO5)ncnc4c3cc2CO1` (centres unmarked) [Compound 247], the EC50 in the assay on SDH-WT cells was > 10 µM; in assay [1], 3 to 10 µM.
The like results for `CC1(C)Cc2nc3sc4c(N(CCO)Cc5ccccc5)ncnc4c3cc2CO1` [Compound 271] were, in that order, 3 to 10 µM and > 10 µM.
For the compound `CC1(C)Cc2nc3sc4c(NCCc5ccc(N)c([N+](=O)[O-])c5)ncnc4c3cc2CO1` [Compound 205], the figures for the 50% effective concentration (EC50) (in the assay on SDH-WT cells; in assay [1]) were 3 to 10 µM and < 1 µM, respectively.
The like results for `CCOC(=O)c1c2c(nc3sc4c(NCCc5ccc6[nH]cnc6c5)ncnc4c13)CC(C)(C)OC2` [Compound 170, Ethyl 4-((2-(1H-benzo[d]imidazol-5-yl)ethyl)amino)-8,8-dimethyl-8,10-dihydro-7H-pyrano[3″,4″:5′,6′]pyrido[3′,2′:4,5]thieno[3,2-d]pyrimidine-11-carboxylate] were, in that order, < 1 µM and < 1 µM.
Take `Cn1cnc2cc(CCNc3ncnc4c3sc3nc5c(cc34)COC(C)(C)C5)ccc21` [Compound 173]: the EC50 in the assay with SDH-WT cells was 3 to 10 µM; in assay [1], < 1 µM.
On the same counts, the results for `CCCCN(C)c1nc(C)nc2c1sc1nc3c(cc12)COC(C)(C)C3` [Compound 242] are > 10 µM and > 10 µM.
The like results for `CCCCCCCNc1ncnc2c1sc1nc3c(cc12)COC(C)(C)C3` [Compound 255] were, in that order, > 10 µM and > 10 µM.
On the same counts, the results for `CC1(C)Cc2nc3sc4c(NCCc5ccc(-c6cnco6)cc5)ncnc4c3cc2CO1` [Compound 149] are > 10 µM and > 10 µM.
As to `CC1(C)Cc2nc3sc4c(NCCc5ccc(O)cc5)ncnc4c3cc2CO1` [Compound 154], the EC50 is 3 to 10 µM with SDH-WT cells and < 1 µM in assay [1].
On the same counts, the results for `CC1(C)Cc2nc3sc4c(NCCCO)ncnc4c3cc2CO1` [Compound 238] are > 10 µM and > 10 µM.
On to `Cc1nc(N2CCCC2)c2sc3nc4c(cc3c2n1)COC(C)(C)C4` [Compound 268], for which the concentration for a half-maximal effect (EC50) (in the assay with SDH-WT cells; in assay [1]) was > 10 µM throughout.
As to `CC1(C)Cc2nc3sc4c(N5CCNCC5)ncnc4c3cc2CO1` [Compound 136], the EC50 (in the assay on SDH-WT cells; in assay [1]) was > 10 µM each time.
For the compound `CC(O)c1nc2cc(CCNc3ncnc4c3sc3nc5c(cc34)COC(C)(C)C5)ccc2[nH]1` (centres unmarked) [Compound 177], the figures for the EC50 (in the assay on SDH-WT cells; in assay [1]) were 3 to 10 µM and 1 to 3 µM, respectively.
The like results for `COc1ccc(CCNc2nc(C)nc3c2sc2nc4c(cc23)COC(C)(C)C4)cc1OC` [Compound 273] were, in that order, > 10 µM and 3 to 10 µM.
As for `CC1(C)Cc2nc3sc4c(NCCc5ccc(F)c(F)c5)ncnc4c3cc2CO1` [Compound 120], the half-maximal effective concentration (EC50) (in the assay on SDH-WT cells; in assay [1]) was > 10 µM throughout.
Turning to `CC1(C)Cc2nc3sc4c(NCCc5ccc6[nH]c(CO)nc6c5)ncnc4c3cc2CO1` [Compound 179], the concentration for a half-maximal effect (EC50) was 3 to 10 µM in the assay on SDH-WT cells and < 1 µM in assay [1].
Regarding `CC1(C)Cc2nc3sc4c(NCCc5ccc(OC(N)=O)cc5)ncnc4c3cc2CO1` [Compound 143], the values for the EC50 (in the assay with SDH-WT cells; in assay [1]) were > 10 µM and < 1 µM, respectively.
On the same counts, the results for `CC(=O)Nc1ccc(CCNc2ncnc3c2sc2nc4c(cc23)COC(C)(C)C4)cc1F` [Compound 204] are > 10 µM and 1 to 3 µM.
The like results for `COc1ccc(CCNc2ncnc3c2sc2nc4c(cc23)CC(C(=O)O)CC4)cc1F` (centres unmarked) [Compound 209] were, in that order, > 10 µM and > 10 µM.
`COCCOCCOCCOCCNC(=O)c1c2c(nc3sc4c(NCCc5ccc6[nH]cnc6c5)ncnc4c13)CC(C)(C)OC2` [Compound 317, 4-((2-(1H-Benzo[d]imidazol-5-yl)ethyl)amino)-8,8-dimethyl-N-(2,5,8,11-tetraoxatridecan-13-yl)-7,10-dihydro-8H-pyrano[3″,4″:5′,6′]pyrido[3′,2′:4,5]thieno[3,2-d]pyrimidine-11-carboxamide]: the EC50 (with SDH-WT cells; in assay [1]) was 3 to 10 µM throughout.
